# Reference: patent publication US20250073230A1, “USE OF PLINABULIN IN COMBINATION WITH IMMUNE CHECKPOINT INHIBITORS” (BeyondSpring Pharmaceuticals, Inc., priority 2015, published 2025)
# “Also recorded” adds a separate entry of the source.
# Experiments:
# MC-38 tumor cells [1] = assay: FACS analysis of the tumors at necropsy, MC-38 CRC tumor model (Example 7); format: in vivo, mice
# Description: The combined treatment with Plinabulin and a PD-1 checkpoint inhibitor in combination with a CTLA-4 checkpoint inhibitor was tested in comparison with the treatment with Plinabulin alone, the treatment with PD-1 antibody alone, or the treatment with PD-1 antibody in combination with CTLA-4 antibody. The tests were performed using seven to ten-week old mice that were injected subcutaneously with MC-38 tumor cells. Six testing groups were prepared, and each group included 10 mice.
# Group 1 was administered with IgG2a and plinabulin vehicle; Group 2 was administered with Plinabulin dissolved in diluent at a concentration of 7.5 mg/kg; Group 3 was administered with PD-1 antibody; Group 4 was administered with a Plinabulin/PD-1 antibody combined treatment; Group 5 was administered combined PD-1/CTLA-4 antibodies; and Group 6 was administered combined PD-1 antibody/CTLA-4 antibody/Plinabulin treatment. For the Plinabulin/PD-1 antibody combined treatment (Group 4) and the Plinabulin/PD-1/CTLA-4 antibody treatment (Group 6), the mice were administered twice per week (Day 1 and Day 4 of each week) with Plinabulin (7.5 mg/kg) that was dissolved in diluent, followed by administering antibody (ies) one hour after each Plinabulin administration. For the Plinabulin only treatment (Group 2) or the antibody (ies) only treatment (Groups 3 and 5), mice were administered Plinabulin (7.5 mg/kg dissolved in diluent) or antibody (ies) alone twice per week (Day 1 and Day 4 of each week).
# Each treatment started at tumor size of around 125 mm^3 and continued until tumor size of 3000 mm^3 was reached. […] To determine the efficacy of each treatment, the following data were collected: mortality rate prior to tumor size reaching 3000 mm^3; the body weight of the mice assessed twice weekly both prior to treatments; the rate of tumor growth as determined by the tumor size measurement (twice every week); the tumor growth index; overall survival rate; the tumor weight at necropsy; and the time required to increase tumor size 10 fold. […]
# SP37A3 DCs [2] = assay: Production of pro-inflammatory cytokines by DCs (ELISA of supernatants); format: cell-based, mouse; settings: Example 2, FIG. 3A-3C, 20 h
# Description: Two other cancer drugs, Paclitaxel and Etoposide, were also tested to compare their effects on DC maturation with Plinabulin. SP37A3 DCs (murine DC line, Merck) were plated (8×10^4 cells/well, 96-well flat bottom, tissue-culture treated) in 180 uL IMDM complete medium [IMDM medium (Sigma) supplemented with 10% heat-inactivated and endotoxin-tested FBS (PAA), sodium pyruvate (Gibco), penicillin/streptomycin L-glutamine mix (Gibco), MEM nonessential amino acids (Sigma) and 0.05 mM 2-mercaptoethanol (Gibco)]. IMDM complete medium was supplemented with 20 ng/mL recombinant mouse GM-CSF. DCs were allowed to adhere for two hours before Plinabulin, Paclitaxel, Etoposide, medium, or LPS (positive control) were added 10× concentrated in 20 uL. […] Cells were analyzed using a BD Fortessa Cytometer equipped with DIVA software. Mean fluorescence intensity (MFI) of the DC maturation markers CD40 (FIG. 2A), CD80 (FIG. 2B), CD86 (FIG. 2C) and MHCII (FIG. 2D) in live cells was normalized to the MFI of those markers detected in untreated (medium) DCs. The production of the pro-inflammatory cytokines IL-1β(FIG. 3A), IL-6 (FIG. 3B), and IL-12p40 (FIG. 3C) were also determined by ELISA.
# SP37A3 DCs [3] = assay: DC viability (SytoxGreen staining); format: cell-based, mouse; settings: FIG. 1B, 0.001-10 μM, 20 h
# MC-38 tumor cells [4] = assay: MC-38 tumor model, Plinabulin with PD-1 antibody and CTLA-4 antibody (Example 7); format: in vivo, mice; settings: Example 7, FIG. 4B; six treatment groups
# Description: The combined treatment with Plinabulin and a PD-1 checkpoint inhibitor in combination with a CTLA-4 checkpoint inhibitor was tested in comparison with the treatment with Plinabulin alone, the treatment with PD-1 antibody alone, or the treatment with PD-1 antibody in combination with CTLA-4 antibody. The tests were performed using seven to ten-week old mice that were injected subcutaneously with MC-38 tumor cells. Six testing groups were prepared, and each group included 10 mice. Group 1 was administered with IgG2a and plinabulin vehicle; Group 2 was administered with Plinabulin dissolved in diluent at a concentration of 7.5 mg/kg; Group 3 was administered with PD-1 antibody; Group 4 was administered with a Plinabulin/PD-1 antibody combined treatment; Group 5 was administered combined PD-1/CTLA-4 antibodies; and Group 6 was administered combined PD-1 antibody/CTLA-4 antibody/Plinabulin treatment. For the Plinabulin/PD-1 antibody combined treatment (Group 4) and the Plinabulin/PD-1/CTLA-4 antibody treatment (Group 6), the mice were administered twice per week (Day 1 and Day 4 of each week) with Plinabulin (7.5 mg/kg) that was dissolved in diluent, followed by administering antibody (ies) one hour after each Plinabulin administration. […] At necropsy the tissues were weighed and subjected to FACS analysis.
# SP37A3 DCs [5] = assay: Expression of DC maturation markers CD40, CD80, CD86 and MHCII by flow cytometry; format: cell-based, mouse; settings: 0.001-10 μM, 20 h
# Description: Cell lines: The immature mouse DC cell line SP37A3 (provided by Merck KGaA) was cultured in Iscove's Modified Dulbecco's Medium (IMDM; Sigma) supplemented with 10% heat-inactivated and endotoxin-tested FBS (PAA), sodium pyruvate (Gibco), penicillin/streptomycin L-glutamine mix (Gibco), Eagle's Minimum Essential Medium (MEM) nonessential amino acids (Sigma), Ciproxin (Bayer), and 0.05 mmol/L 2-mercaptoethanol (Gibco). IMDM complete medium was supplemented with 20 ng/mL recombinant mouse GM-CSF and 20 ng/mL recombinant mouse M-CSF (both Peprotech). The murine tumor cell lines EG7 and 3LL-OVA were obtained from ATCC or provided by Douglas T. Fearon (Cancer Research UK Cambridge Institute, Li Ka Shing Centre, University of Cambridge, Cambridge, UK), respectively. All cell lines were tested and validated to be Mycoplasma-free. Expression of OVA in EG7 and 3LL-OVA, and of Thy1.1 in RMAThy1.1, respectively, was confirmed; no genomic authentication was performed.
# SP37A3 DCs (murine DC line, Merck) were plated (8×10^4 cells/well, 96-well flat bottom, tissue-culture treated) in 180 uL IMDM complete medium [IMDM medium (Sigma) supplemented with 10% heat-inactivated and endotoxin-tested FBS (PAA), sodium pyruvate (Gibco), penicillin/streptomycin L-glutamine mix (Gibco), MEM nonessential amino acids (Sigma) and 0.05 mM 2-mercaptoethanol (Gibco)]. IMDM complete medium was supplemented with 20 ng/mL recombinant mouse GM-CSF. DCs were allowed to adhere for two hours before Plinabulin, medium, or LPS as controls were added 10× concentrated in 20 uL. DCs were incubated with Plinabulin in various concentrations (0.001 μM, 0.01 μM, 0.1 μM, 1 μM, 10 μM), medium, and LPS respectively for 20 h. Supernatants of these cultures were collected and used for detection of cytokine production by ELISA (kits available from BD) and the cells were stained with the LD-IR viability dye (Invitrogen) as well as with fluorochrom-labeled monoclonal antibodies against CD80, CD86, CD40 and MHCII for flow cytometric analysis. Cells were analyzed using a BD Fortessa Cytometer equipped with DIVA software. Mean fluorescence intensity (MFI) of the DC maturation markers CD40, CD80, CD86 and MHCII in live cells was normalized to the MFI of those markers detected in untreated (medium) DCs.
# Two other cancer drugs, Paclitaxel and Etoposide, were also tested to compare their effects on DC maturation with Plinabulin. […] Cells were analyzed using a BD Fortessa Cytometer equipped with DIVA software. Mean fluorescence intensity (MFI) of the DC maturation markers CD40 (FIG. 2A), CD80 (FIG. 2B), CD86 (FIG. 2C) and MHCII (FIG. 2D) in live cells was normalized to the MFI of those markers detected in untreated (medium) DCs. […]
structure (smiles),measurement,setting,value
"CC(C)(C)c1[nH]cnc1/C=c1\[nH]c(=O)/c(=C/c2ccccc2)[nH]c1=O [Plinabulin, (3Z,6Z)-3-Benzylidene-6-{[5-(2-methyl-2-propanyl)-1H-imidazol-4-yl]methylene}-2,5-piperazinedione]",percentage of Treg cells in tumor,"MC-38 tumor cells [1]; FIG. 5A, vs comparator group without plinabulin",reduction in % Treg cells; also recorded: decreased percentage of Regulatory T cells
same,ratio of CD8+ cells to Treg cells in tumor,MC-38 tumor cells [1]; FIG. 5B,increase in the ratio of CD8+/Treg cells
same,percentage of macrophages in CD45+ lymphocytes in tumor,"MC-38 tumor cells [1]; FIG. 5C, vs respective comparator groups",decreased percentage of macrophage stained cells
same,"production of IL1b, IL6 and IL12 (IL-12p40) compared with Paclitaxel, Etoposide and LPS",SP37A3 DCs [2],"increased production of IL1b, IL6, and IL12"
same,DC viability,SP37A3 DCs [3],did not change significantly
same,mean tumor weight at necropsy,MC-38 tumor cells [4],decreased tumor weight at necropsy
same,"expression of DC maturation markers CD40, CD80, CD86 and MHCII (MFI normalized to untreated DCs)","SP37A3 DCs [5]; Example 1, FIG. 1A",significantly increased expression of all four DC maturation markers
same,"expression of DC maturation markers CD40, CD80, MHCII and CD86 compared with Paclitaxel and Etoposide","SP37A3 DCs [5]; Example 2, FIG. 2A-2D",much greater expression of all four DC maturation markers
same,expression of DC maturation markers compared with positive control LPS,"SP37A3 DCs [5]; Example 2, FIG. 2A-2D",significantly increased expression of all four markers
same,"induction of DC maturation, rank among Plinabulin, Paclitaxel and Etoposide",SP37A3 DCs [5]; Example 2,most potent inducer of DC maturation among all three drugs
